Results on 24 compounds are retold here after patent US20250236608A1, “EGFR INHIBITORS” (Blueprint Medicines Corporation, priority 2022, published 2025).

Molecules are shown by their SMILES.

Experiment [1] deals with EGFR L858R (Homo sapiens (Human), UniProt P00533, L858R). In words: Biochemical EGFR inhibition assay, EGFR L858R. Conditions: Caliper mobility shift; 1.0 mM ATP or ATP Km; read-out: Enz EGFR_L858R IC50.
For experiment [2], the target named is EGFR (d746-750) (Homo sapiens (Human), UniProt P00533, DEL746-750). In words: Biochemical EGFR inhibition assay, EGFR (d746-750). As to conditions: Caliper mobility shift; 1.0 mM ATP or ATP Km; read-out: Enz EGFR_Exon19-del746-750 IC50.
EGFR (d746-750), sequence (P00533 other isoform, or with tags, fused parts or gaps del 1-694/del 746-750 limits assumed): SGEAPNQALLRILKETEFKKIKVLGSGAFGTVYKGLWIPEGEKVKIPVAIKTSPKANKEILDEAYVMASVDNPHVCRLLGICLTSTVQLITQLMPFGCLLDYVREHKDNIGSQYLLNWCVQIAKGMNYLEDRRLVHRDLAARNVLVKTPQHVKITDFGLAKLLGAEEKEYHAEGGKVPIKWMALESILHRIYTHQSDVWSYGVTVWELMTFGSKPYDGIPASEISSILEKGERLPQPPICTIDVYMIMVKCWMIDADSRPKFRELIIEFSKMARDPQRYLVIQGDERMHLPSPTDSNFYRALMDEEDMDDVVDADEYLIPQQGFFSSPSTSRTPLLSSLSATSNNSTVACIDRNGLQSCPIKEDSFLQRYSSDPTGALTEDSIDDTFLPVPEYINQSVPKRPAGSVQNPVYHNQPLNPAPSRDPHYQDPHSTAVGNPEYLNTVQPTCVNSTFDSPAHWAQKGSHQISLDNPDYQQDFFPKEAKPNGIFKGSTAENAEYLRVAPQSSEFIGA
Experiment [3] concerns the target pEGFR (Tyr1068) in PC-9 cells (Ex19Del) (Homo sapiens (Human), UniProt P00533, DEL746-750). In words: PC-9 pEGFR AlphaLISA assay. The class given is cell-based. Conditions: 4 hours incubation, p-EGFR (Tyr1068) AlphaLISA, read-out: Ext pEGFR_PC-9 Ex19Del IC50. The procedure, abridged: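 Cells seeded in phenol-free DMEM with 10% FBS adhered overnight at 37° C./5% CO2, then were exposed for 4 hours to a 4-fold, 10-point compound dilution series. After lysis, phospho-EGFR was read by AlphaLISA SureFire Ultra, and IC50 was fitted from percent inhibition versus log concentration.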

pEGFR (Tyr1068) in PC-9 cells (Ex19Del), sequence (P00533 other isoform, or with tags, fused parts or gaps del 746-750): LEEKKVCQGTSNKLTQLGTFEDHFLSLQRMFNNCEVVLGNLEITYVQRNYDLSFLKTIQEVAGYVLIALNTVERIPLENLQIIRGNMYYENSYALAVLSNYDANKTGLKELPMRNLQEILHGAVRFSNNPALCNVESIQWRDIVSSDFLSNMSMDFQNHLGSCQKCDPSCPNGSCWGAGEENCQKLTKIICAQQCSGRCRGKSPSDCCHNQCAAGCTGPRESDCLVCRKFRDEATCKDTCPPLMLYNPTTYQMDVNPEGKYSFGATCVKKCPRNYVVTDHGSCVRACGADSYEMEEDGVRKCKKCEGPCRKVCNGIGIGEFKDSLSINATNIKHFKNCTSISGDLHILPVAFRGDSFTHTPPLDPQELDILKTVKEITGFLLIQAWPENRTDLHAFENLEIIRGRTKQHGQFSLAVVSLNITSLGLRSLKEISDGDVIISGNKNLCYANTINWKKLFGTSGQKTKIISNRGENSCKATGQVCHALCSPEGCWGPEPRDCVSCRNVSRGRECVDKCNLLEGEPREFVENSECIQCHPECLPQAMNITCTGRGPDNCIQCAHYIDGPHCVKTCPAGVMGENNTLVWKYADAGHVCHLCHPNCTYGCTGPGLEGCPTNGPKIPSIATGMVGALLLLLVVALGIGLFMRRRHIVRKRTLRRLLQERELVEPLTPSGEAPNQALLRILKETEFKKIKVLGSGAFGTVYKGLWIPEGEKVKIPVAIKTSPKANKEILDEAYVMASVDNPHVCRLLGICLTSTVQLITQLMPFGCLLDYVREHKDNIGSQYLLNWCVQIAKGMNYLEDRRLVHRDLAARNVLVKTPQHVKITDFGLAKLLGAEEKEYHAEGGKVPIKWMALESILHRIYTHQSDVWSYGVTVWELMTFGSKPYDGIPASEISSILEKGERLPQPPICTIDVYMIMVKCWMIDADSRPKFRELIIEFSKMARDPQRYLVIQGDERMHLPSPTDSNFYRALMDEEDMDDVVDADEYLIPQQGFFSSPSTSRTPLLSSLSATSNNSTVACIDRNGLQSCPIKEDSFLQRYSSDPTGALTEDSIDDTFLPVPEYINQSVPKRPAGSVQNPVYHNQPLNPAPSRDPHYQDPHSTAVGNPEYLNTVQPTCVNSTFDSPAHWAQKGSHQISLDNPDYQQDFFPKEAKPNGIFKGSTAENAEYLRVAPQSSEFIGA
EGFR L858R, sequence (P00533 25-1210 L858R): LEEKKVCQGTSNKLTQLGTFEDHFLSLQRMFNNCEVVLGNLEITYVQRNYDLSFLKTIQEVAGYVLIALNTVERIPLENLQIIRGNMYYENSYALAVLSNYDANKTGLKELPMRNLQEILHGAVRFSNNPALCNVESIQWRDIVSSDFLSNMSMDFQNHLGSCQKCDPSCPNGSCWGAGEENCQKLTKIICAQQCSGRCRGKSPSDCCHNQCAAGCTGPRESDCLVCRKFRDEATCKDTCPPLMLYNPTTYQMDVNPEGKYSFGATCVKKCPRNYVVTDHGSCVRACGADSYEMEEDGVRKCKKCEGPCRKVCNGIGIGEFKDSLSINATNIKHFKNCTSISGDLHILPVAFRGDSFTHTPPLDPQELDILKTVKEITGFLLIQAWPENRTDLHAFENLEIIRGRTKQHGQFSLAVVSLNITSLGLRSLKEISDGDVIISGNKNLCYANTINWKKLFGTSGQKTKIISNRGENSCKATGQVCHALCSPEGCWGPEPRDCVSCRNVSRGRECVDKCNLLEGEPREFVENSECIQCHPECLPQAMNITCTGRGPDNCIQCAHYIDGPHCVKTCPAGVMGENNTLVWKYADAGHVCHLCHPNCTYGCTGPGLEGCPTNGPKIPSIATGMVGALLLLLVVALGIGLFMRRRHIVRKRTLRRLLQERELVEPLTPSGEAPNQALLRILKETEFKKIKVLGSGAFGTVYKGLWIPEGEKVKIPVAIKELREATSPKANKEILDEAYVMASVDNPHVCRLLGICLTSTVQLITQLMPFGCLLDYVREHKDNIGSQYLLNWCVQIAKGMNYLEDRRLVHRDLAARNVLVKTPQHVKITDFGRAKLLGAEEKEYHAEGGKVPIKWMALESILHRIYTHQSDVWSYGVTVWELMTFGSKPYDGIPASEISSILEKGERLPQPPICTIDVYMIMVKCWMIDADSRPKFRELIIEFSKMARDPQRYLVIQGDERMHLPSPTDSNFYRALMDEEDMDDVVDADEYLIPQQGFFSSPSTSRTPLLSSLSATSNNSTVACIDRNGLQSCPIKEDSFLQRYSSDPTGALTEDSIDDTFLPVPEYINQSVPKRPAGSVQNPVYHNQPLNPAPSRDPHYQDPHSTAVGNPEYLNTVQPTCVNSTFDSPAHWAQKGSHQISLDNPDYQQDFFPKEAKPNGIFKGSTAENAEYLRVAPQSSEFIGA

In the case of `Cn1cc(-c2ncnc3cc(OC4CC4)c(NC(=O)C4(C(F)(F)F)CC4)nc23)c(-c2ccccc2)n1` [Example 463, N-[7-cyclopropoxy-4-(1-methyl-3-phenyl-1H-pyrazol-4-yl)pyrido[3,2-d]pyrimidin-6-yl]-1-(trifluoromethyl)cyclopropane-1-carboxamide], the IC50 in experiment [1] is 3.9 nM; in experiment [2], 0.8 nM; in experiment [3], 1.7 nM.

Turning to `Cn1cc(-c2ncnc3cc(O)c(NC(=O)C4(C(F)(F)F)CC4)nc23)c(-c2ccccc2)n1` [Example 464, N-[7-hydroxy-4-(1-methyl-3-phenyl-1H-pyrazol-4-yl)pyrido[3,2-d]pyrimidin-6-yl]-1-(trifluoromethyl)cyclopropane-1-carboxamide], the IC50 in experiment [1] was determined as 0.9 nM; in experiment [2] it was 0.3 nM; in experiment [3], 1.4 nM.

Turning to `Cn1cc(-c2ncnc3cc(OC(F)F)c(NC(=O)C4(C(F)(F)F)CC4)nc23)c(-c2ccccc2)n1` [Example 465, N-(7-(difluoromethoxy)-4-(1-methyl-3-phenyl-1H-pyrazol-4-yl)pyrido[3,2-d]pyrimidin-6-yl)-1-(trifluoromethyl)cyclopropane-1-carboxamide], the IC50 in experiment [1] came out at 4.9 nM; in experiment [2] it was 0.8 nM; in experiment [3], 3.5 nM.

Take `CN(C)C12CC(C(=O)Nc3nc4c(-c5cn(C)nc5-c5ccc(F)cc5)ncnc4cc3OC(F)F)(C1)C2` [Example 466, N-[7-(difluoromethoxy)-4-[3-(4-fluorophenyl)-1-methyl-1H-pyrazol-4-yl]pyrido[3,2-d]pyrimidin-6-yl]-3-(dimethylamino) bicyclo[1.1.1]pentane-1-carboxamide]: the IC50 in experiment [1] came out at 39 nM; in experiment [2], 7.3 nM; in experiment [3], 31.2 nM.

Turning to `COc1cc2ncnc(-c3c[nH]nc3-c3ccc(F)cc3)c2nc1NC(=O)[C@]12COC[C@H]1C2` [Example 467, (1S,5S)—N-{4-[3-(4-fluorophenyl)-1H-pyrazol-4-yl]-7-methoxypyrido[3,2-d]pyrimidin-6-yl}-3-oxabicyclo[3.1.0]hexane-1-carboxamide], the IC50 amounted to 5.5 nM in experiment [1], 1.3 nM in experiment [2] and 5.3 nM in experiment [3].

On to `CN(C)C12CC(C(=O)Nc3nc4c(-c5cn(C)nc5-c5ccccc5F)ncnc4cc3OC(F)F)(C1)C2` [Example 468, N-[7-(difluoromethoxy)-4-[3-(2-fluorophenyl)-1-methyl-1H-pyrazol-4-yl]pyrido[3,2-d]pyrimidin-6-yl]-3-(dimethylamino) bicyclo[1.1.1]pentane-1-carboxamide], for which the IC50 in experiment [1] amounted to 60.4 nM; in experiment [2], 7.4 nM; in experiment [3] it was 22 nM.

Turning to `CN(C)C12CC(C(=O)Nc3nc4c(-c5cn(C)nc5-c5ccccc5F)ncnc4cc3OC3CC3)(C1)C2` [Example 469, N-{7-cyclopropoxy-4-[3-(2-fluorophenyl)-1-methyl-1H-pyrazol-4-yl]pyrido[3,2-d]pyrimidin-6-yl}-3-(dimethylamino) bicyclo[1.1.1]pentane-1-carboxamide], the IC50 in experiment [1] worked out at 11.1 nM; in experiment [2] it was 2.4 nM; in experiment [3], 2.7 nM.

With `Cn1cc(-c2ncnc3cc(OC(F)F)c(NC(=O)c4ccc(C5CC5)nc4)nc23)c(-c2ccccc2)n1` [Example 470, 6-cyclopropyl-N-[7-(difluoromethoxy)-4-(1-methyl-3-phenyl-1H-pyrazol-4-yl)pyrido[3,2-d]pyrimidin-6-yl]pyridine-3-carboxamide], the IC50 in experiment [1] was 26 nM; in experiment [2], 4.5 nM; in experiment [3], 23.8 nM.

As to `CCc1ccc(-c2cc3c(-c4cn(C)nc4-c4ccccc4)ncnc3cc2OC)c2c[nH]nc12` [Example 472, 6-(7-ethyl-2H-indazol-4-yl)-7-methoxy-4-(1-methyl-3-phenyl-1H-pyrazol-4-yl)quinazoline], the IC50 in experiment [1] was 7.6 nM; in experiment [2], 1.9 nM; in experiment [3], 2.7 nM.

With `COc1cc2ncnc(-c3cn(C)nc3-c3ccc(Cl)cc3)c2nc1NC(=O)C12CC(N(C)C)(C1)C2` [Example 474, N-{4-[3-(4-chlorophenyl)-1-methyl-1H-pyrazol-4-yl]-7-methoxypyrido[3,2-d]pyrimidin-6-yl}-3-(dimethylamino) bicyclo[1.1.1]pentane-1-carboxamide], the IC50 in experiment [1] amounted to 5.6 nM; in experiment [2], 2 nM; in experiment [3], 3.6 nM.

As for `CN1CC[C@@H](Oc2cc3c(-c4cn(C)nc4-c4ccccc4)ncnc3cc2OC(F)F)[C@H](F)C1` [Example 475, 7-(difluoromethoxy)-6-{[(3R,4R)-3-fluoro-1-methylpiperidin-4-yl]oxy}-4-(1-methyl-3-phenyl-1H-pyrazol-4-yl)quinazoline], the half-inhibitory concentration (IC50) worked out at 65.5 nM in experiment [1], 21 nM in experiment [2] and 71.6 nM in experiment [3].

For `Cc1n[nH]c(-c2ccccc2)c1-c1ncnc2cc(-c3cnn(C)c3)ccc12` [Example 479, 7-(1-methyl-1H-pyrazol-4-yl)-4-(3-methyl-5-phenyl-1H-pyrazol-4-yl)quinazoline], the IC50 in experiment [1] is 2.7 nM; in experiment [2], 2.1 nM; in experiment [3], 25.9 nM.

Consider `Cc1c(-c2ncnc3cc(-c4cnn(C)c4)ccc23)c(-c2ccccc2)nn1C` [Example 480, 4-(1,5-dimethyl-3-phenyl-1H-pyrazol-4-yl)-7-(1-methyl-1H-pyrazol-4-yl)quinazoline], for which the IC50 was determined as 5.6 nM in experiment [1], 4.4 nM in experiment [2] and 69.1 nM in experiment [3].

Turning to `Cc1nn(C)c(-c2ccccc2)c1-c1ncnc2cc(-c3cnn(C)c3)ccc12` [Example 481, 4-(1,3-dimethyl-5-phenyl-1H-pyrazol-4-yl)-7-(1-methyl-1H-pyrazol-4-yl)quinazoline], the IC50 in experiment [1] is 70.5 nM; in experiment [2], 78 nM; in experiment [3], 953 nM.

For the compound `COc1cc2ncnc(-c3c(-c4ccccc4)nn(C)c3C)c2cc1OC(=O)N1CCN(C)C[C@@H]1C` [Example 482, 4-(1,5-dimethyl-3-phenyl-1H-pyrazol-4-yl)-7-methoxyquinazolin-6-yl(S)-2,4-dimethylpiperazine-1-carboxylate], the IC50 in experiment [1] was 207 nM; in experiment [2], 97 nM; in experiment [3] it was 320 nM.

For the compound `Cn1cc(-c2ncnc3cc(C(F)(F)F)c(NC(=O)C45COCC4C5)nc23)c(-c2ccccc2)n1` (stereo not drawn) [Example 483, N-(4-(1-methyl-3-phenyl-1H-pyrazol-4-yl)-7-(trifluoromethyl)pyrido[3,2-d]pyrimidin-6-yl)-3-oxabicyclo[3.1.0]hexane-1-carboxamide], the IC50 was 748 nM in experiment [1], 300 nM in experiment [2] and 1710 nM in experiment [3].

Take `COc1cc2ncnc(-c3cn(C(F)(F)F)nc3-c3ccccc3)c2cc1NC(=O)C12CC(C1)C2` [Example 484, N-(7-methoxy-4-(3-phenyl-1-(trifluoromethyl)-1H-pyrazol-4-yl)quinazolin-6-yl)bicyclo[1.1.1]pentane-1-carboxamide]: the IC50 in experiment [1] was 48.7 nM; in experiment [2], 13.4 nM; in experiment [3], 184 nM.

With `COc1cc2ncnc(-c3cnn(C(F)(F)F)c3-c3ccccc3)c2cc1NC(=O)C12CC(C1)C2` [Example 485, N-(7-methoxy-4-(5-phenyl-1-(trifluoromethyl)-1H-pyrazol-4-yl)quinazolin-6-yl)bicyclo[1.1.1]pentane-1-carboxamide], the IC50 in experiment [1] amounted to 121 nM; in experiment [2] it was 76.3 nM; in experiment [3] it was 1210 nM.

On to `[2H]C([2H])([2H])Oc1cc2ncnc(-c3cn(C([2H])([2H])[2H])nc3-c3ccccc3)c2nc1NC(=O)C1(C(F)(F)F)CC1` [Example 486, N-(7-(methoxy-d3)-4-(1-(methyl-d3)-3-phenyl-1H-pyrazol-4-yl)pyrido[3,2-d]pyrimidin-6-yl)-1-(trifluoromethyl)cyclopropane-1-carboxamide], for which the IC50 turned out to be 2.2 nM in experiment [1], 0.7 nM in experiment [2] and 1.5 nM in experiment [3].

`[2H]C([2H])([2H])Oc1cc2ncnc(-c3cnn(C([2H])([2H])[2H])c3-c3ccccc3)c2nc1NC(=O)C1(C(F)(F)F)CC1` [Example 487, N-(7-(methoxy-d3)-4-(1-(methyl-d3)-5-phenyl-1H-pyrazol-4-yl)pyrido[3,2-d]pyrimidin-6-yl)-1-(trifluoromethyl)cyclopropane-1-carboxamide]: the IC50 in experiment [1] turned out to be 50 nM; in experiment [2], 19.5 nM; in experiment [3] it was 173 nM.

For `Cn1cc(-c2ncnc3cc(C(F)(F)F)c(NC(=O)C45COCC4C5)nc23)c(-c2ccccc2)n1` (stereo not drawn) [Example 488, N-(4-(1-methyl-3-phenyl-1H-pyrazol-4-yl)-7-(trifluoromethyl)pyrido[3,2-d]pyrimidin-6-yl)-3-oxabicyclo[3.1.0]hexane-1-carboxamide], the IC50 turned out to be 416 nM in experiment [1], 126 nM in experiment [2] and 981 nM in experiment [3].

Take `COc1cc2ncnc(-c3cn(CC(F)F)nc3-c3ccc(F)cc3)c2cc1C1(O)CC1` [Example 489]: the results for the IC50 in experiment [1], in experiment [2] and in experiment [3] were 6.9 nM, 3.9 nM and 13.8 nM, respectively.

Take `COc1cc2ncnc(-c3cnn(CC(F)F)c3-c3ccc(F)cc3)c2cc1C1(O)CC1` [Example 490]: the results for the IC50 in experiment [1], in experiment [2] and in experiment [3] were 82 nM, 237 nM and 836 nM, respectively.

Consider `[2H]C([2H])([2H])n1ncc(-c2ncnc3cc(OC)c(NC(=O)C4(C(F)(F)F)CC4)nc23)c1-c1ccccc1` [Example 492], for which the IC50 came out at 70.7 nM in experiment [1], 47.3 nM in experiment [2] and 636 nM in experiment [3].

The term IC50 denotes the point on the concentration scale where inhibition reaches its midpoint.
